Measured values: patent US3956328A, “S-triazolo(1,5-a)pyridine derivative” (Kyorin Seiyaku Kabushiki Kaisha, priority 1973, dated 1976)
Where a name gives a salt, the structure may show the parent alone.

Tests used:
[1] = Solubility and hygroscopicity of the salt; type: physicochemical
ddN mice = conditions: cited from earlier work
[2] = system: guinea pig tracheal chain strips; assay: Anti histaminic action: histamine-induced contraction of guinea pig tracheal chain strips; conditions: 4×10^^-5 M; Tyrodes solution
[3] = system: heterologous PCA in guinea pigs; assay: Heterologous passive cutaneous anaphylaxis (PCA) in guinea pigs; type: in vivo, guinea pig; conditions: 25 mg/kg po, 30 min. before challenge; rabbit antiserum to egg albumin
Description: Male guinea pigs are passively sensitized by the intradermal injection of rabbit antiserum to egg albumin and challenged by the intravenous injection of egg albumin 4 hrs. after the sensitization. The test compounds are orally given 30 min. before the challenge.

[4] = system: BSA induced asthma in guinea pigs; assay: Inhibitory action on BSA-induced (experimentally allergic) asthma attack in passively sensitized guinea pigs; type: in vivo, guinea pig; conditions: for p (statistical significance vs non treatment) / z1 (statistical value vs non treatment): severity; for z1 (statistical value vs non treatment): Mann and Whitney U test
Description: The present compound is studied on asthma attacks induced by the antigen-antibody reaction in guinea pigs. The guinea pigs are sensitized passively by the injection of 0.1 to 0.3 ml /100g body weight of rabbit antiserum to BSA (bovine serum albumin) into the ear vein. Forty six hours after passive sensitization, the guinea pigs are orally given the tested compounds. Two hours after oral administration, the asthma attack is provoked by an aerosol injection (0.1 ml/min.) of 1% BSA solution in physiological saline into the plastic chamber in which the testing guinea pig is placed. The symptoms of the asthma attack are observed for 10 minutes and scored on the following shock indices. The shock indices are examined by the shock grades, No. of collapsed guinea pigs/No. of used animals and survival rate.
The shock grades are as follows:
1 slight stimulation of expiration
2 stimulation of expiration (labored expiration)
3 attack of singultation
4 the strongest attack of collapse and struggle
but recovery from collapse within 5 minutes
5 recovery from collapse within 5 to 10 minutes
6 interruption of expiration to death within 10
*Statistical comparisons were carried out with the Mann and Whitneys' U
z1 : The statistical value between non treatment and each tested
z2 : The statistical value between the present compound and […]

[5] = system: histamine-induced asthma attack; assay: Inhibitory action on histamine-induced asthma attack in guinea pigs; type: in vivo, guinea pig; conditions: for z1 (statistical value): Mann and Whitney U test
Description: Inhibitory actions on histamine-induced asthma attack: Male guinea pigs, of about 300 g body weight are used. Asthma attack is provoked by an aerosol of 0.2% histamine dihydrochloride solution in physiological saline for 10 minutes. The inhibitory actions are examined by shock grades, No. of collapsed guinea pigs/No. of provoked guinea pigs and survival rate. The tested compounds are orally given 2 hrs. prior to spraying of histamine solution.
A/B: No. of collapsed guinea pigs/ No. of provoked guinea pigs.
Statistical comparisons were carried out with the Mann and Whtineys' U

guinea pig ileum = assay: Schultz-Dale reaction in guinea pig ileum sensitized actively with egg albumin; conditions: antigen egg albumin
Description: Male guinea pigs are actively sensitized and their ileum preparations are treated by Schultz-Dales method (J. Pharmacol. Exp. Ther., 4, 167, 1913). […] These preceeding pharmacological properties of the present compound are due to triazolo [1,5-a]pyridine.

[6] = antiserum 0.1 ml/100 g, 0.5 mg/kg p.o.
[7] = antiserum 0.1 ml/100 g, 1.0 mg/kg p.o.
[8] = antiserum 0.1 ml/100 g, 5.0 mg/kg p.o.
[9] = antiserum 0.2 ml/100 g, 5 mg/kg p.o.
[10] = antiserum 0.3 ml/100 g, 5 mg/kg p.o.

Structure (SMILES): c1ccc(C(c2ccccc2)N2CCN(CCCc3nc4ccccn4n3)CC2)cc1 [dihydrochloride salt]
- solubility in alcohols ([1]; alcohols): soluble
- hygroscopicity ([1]; fine needles from ethanol-petroleum ether): hydroscopic
- solubility in water ([1]; water): soluble

Structure (SMILES): CN1CCCN(C(c2ccccc2)c2ccc(Cl)cc2)CC1 (stereo not drawn) [homochlorcyclizine, reference compound]
- acute LD50 (reported for standard drug) (ddN mice): 353 mg/kg
- inhibitory rate on histamine-induced contraction [2]: 74%
- Inhibition % of extravasation of blue dye [3]: 41.7%
- A/B: No. of collapsed / No. of provoked guinea pigs [4, 6]: 4/6
- A/B: collapsed guinea pigs, percentage [4, 6]: 66.7%
- Survival rate (animals) [4, 6]: 5/6
- Survival rate, percentage [4, 6]: 83.3%
- A/B: No. of collapsed / No. of provoked guinea pigs [4, 7]: 6/10
- A/B: collapsed guinea pigs, percentage [4, 7]: 60%
- Survival rate (animals) [4, 7]: 10/10
- Survival rate, percentage [4, 7]: 100%
- A/B: No. of collapsed / No. of provoked guinea pigs [4, 8]: 1/6
- A/B: collapsed guinea pigs, percentage [4, 8]: 16.7%
- Survival rate (animals) [4, 8]: 6/6
- Survival rate, percentage [4, 8]: 100%
- A/B: No. of collapsed / No. of provoked guinea pigs [4, 9]: 4/6
- A/B: collapsed guinea pigs, percentage [4, 9]: 66.7%
- Survival rate (animals) [4, 9]: 6/6
- Survival rate, percentage [4, 9]: 100%
- A/B: No. of collapsed / No. of provoked guinea pigs [4, 10]: 1.5
- A/B: collapsed guinea pigs, percentage [4, 10]: 20%
- Survival rate (animals) [4, 10]: 5/5
- Survival rate, percentage [4, 10]: 100%
- p (statistical significance vs non treatment) [4, 6]: < 0.02
- z1 (statistical value vs non treatment) [4, 6]: 2.235
- p (statistical significance vs non treatment) [4, 7]: < 0.001
- z1 (statistical value vs non treatment) [4, 7]: 3.368
- p (statistical significance vs non treatment) [4, 8]: < 0.001
- z1 (statistical value vs non treatment) [4, 8]: 3.576
- p (statistical significance vs non treatment) [4, 9]: < 0.0001
- z1 (statistical value vs non treatment) [4, 9]: 3.993
- p (statistical significance vs non treatment) [4, 10]: < 0.002
- z1 (statistical value vs non treatment) [4, 10]: 3.23
- A/B: No. of collapsed / No. of provoked guinea pigs ([5]; 2.50 mg/kg p.o.): 5/11
- A/B: collapsed guinea pigs, number in parentheses (percentage) ([5]; 2.50 mg/kg p.o.): 45.5
- Survival rate (animals) ([5]; 2.50 mg/kg p.o.): 11/11
- Survival rate, number in parentheses (percentage) ([5]; 2.50 mg/kg p.o.): 100
- z1 (statistical value) ([5]; 2.50 mg/kg p.o. vs non treatment 2 (so in the source)): > 5
- significance of difference from non treatment 2 (so in the source) ([5]; 2.50 mg/kg p.o., homochlorcyclizine): markedly significant difference
- A/B: No. of collapsed / No. of provoked guinea pigs ([5]; 10.0 mg/kg p.o.): 1/6
- A/B: collapsed guinea pigs, number in parentheses (percentage) ([5]; 10.0 mg/kg p.o.): 16.7
- Survival rate (animals) ([5]; 10.0 mg/kg p.o.): 6/6
- Survival rate, number in parentheses (percentage) ([5]; 10.0 mg/kg p.o.): 100
- z1 (statistical value) ([5]; 10.0 mg/kg p.o. vs non treatment 1 (so in the source)): 3.315
- p (significant difference from non treatment 1) ([5]; 10.0 mg/kg p.o., homochlorcyclizine): 0.0005

Structure (SMILES): c1ccc(C(c2ccccc2)N2CCN(CCCc3nc4ccccn4n3)CC2)cc1 [the present compound HCl salt]
- Inhibition % of Schultz-Dale reaction (guinea pig ileum; 2×10^^-7 M): 32.2%
- Inhibition % of Schultz-Dale reaction (guinea pig ileum; 3×10^^-7 M): 55.6%
- Inhibition % of Schultz-Dale reaction (guinea pig ileum; 5×10^^-7 M): 60.1%
